Among the data in US20260022142A1, “MACROCYCLIC IMMUNOMODULATORS” (Bristol-Myers Squibb Company, priority 2022, published 2026) are IC50 values, retold here.

Each structure is given as a SMILES string. Bridge positions count the residues as written; N and C are the ends. Square brackets hold non-standard residues; d marks the D form. Peptide text beside a SMILES is read from it. * marks the point of attachment. Phe(4-CONH2) = NC(=O)c1ccc(C[C@H](N)C(=O)O)cc1; Bip = N[C@@H](Cc1ccc(-c2ccccc2)cc1)C(=O)O; NH(CH2)14COOH = O=C(O)CCCCCCCCCCCCCCN*; Phe(3-Me) = Cc1cccc(C[C@H](N)C(=O)O)c1; NH(CH2)12COOH = O=C(O)CCCCCCCCCCCCN*; Val(3-OH) = CC(C)(O)[C@H](N)C(=O)O; hPhe = N[C@@H](CCc1ccccc1)C(=O)O; 4Pal = N[C@@H](Cc1ccncc1)C(=O)O; Cha = N[C@@H](CC1CCCCC1)C(=O)O; hSer = N[C@@H](CCO)C(=O)O; Carboxymethyl = O=C(O)C*; Orn = NCCC[C@H](N)C(=O)O; Aun = NCCCCCCCCCCC(=O)O; Dab = NCC[C@H](N)C(=O)O; Nva = CCC[C@H](N)C(=O)O; Dap = NC[C@H](N)C(=O)O

T1 sequence (Q15116 25-288): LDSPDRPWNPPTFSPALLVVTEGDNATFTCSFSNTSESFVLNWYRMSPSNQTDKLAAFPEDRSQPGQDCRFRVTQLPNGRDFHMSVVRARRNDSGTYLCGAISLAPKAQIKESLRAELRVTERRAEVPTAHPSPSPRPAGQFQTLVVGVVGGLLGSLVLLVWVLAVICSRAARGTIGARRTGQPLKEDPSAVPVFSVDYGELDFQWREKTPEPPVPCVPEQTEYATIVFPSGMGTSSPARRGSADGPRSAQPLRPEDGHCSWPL

This assay addresses T1, PD-1/PD-L1 interaction (PE-labeled human PD-L1-Ig binding to Jurkat cell line over-expressing human PD-1) (Homo sapiens, UniProt Q15116).
T1 construct: expressed in transfected cells; host or cells: Jurkat
Put plainly: Jurkat-PD-1 Cell Binding High-Content Screening Assay (CBA). The class given is cell-based. Conditions: Jurkat cell line over-expressing human PD-1; PE-labeled PD-L1-Ig 20 nM final; read-out: Jurkat hPD1-PDL1 IC50. In outline:
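Jurkat cells stably over-expressing human PD-1 were seeded in DMEM with 10% fetal calf serum and pre-incubated with compound for 2 h at 37° C. PE-labeled human PD-L1-Ig was then added at 20 nM final for 1 hour, after which cells were fixed with paraformaldehyde, Hoechst-stained and imaged by high-content microscopy.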
By IC50 is commonly meant the midpoint of a concentration-inhibition curve. Take `Cc1cccc(C[C@@H]2NC(=O)[C@H](CC(=O)O)NC(=O)[C@H](Cc3ccc(OCC(=O)O)cc3)NC(=O)[C@H](Cc3ccc(C(N)=O)cc3)NC(=O)CSC[C@@H](C(=O)N[C@@H](CCN)C(=O)NCCCCCCCCCCC(=O)O)NC(=O)[C@H](CO)NC(=O)[C@H](C(C)(C)O)NC(=O)[C@H](CC3CCCCC3)NC(=O)[C@H](CCN)NC(=O)[C@@H](CC(C)C)NC(=O)[C@H](CCCN)NC(=O)[C@H](Cc3ccc(OCC(=O)O)cc3)NC(=O)[C@H](Cc3ccc(-c4ccccc4)cc3)NC(=O)[C@H](Cc3ccc(OCC(=O)O)cc3)NC2=O)c1` [Compound 2218] ({CH2CO}-[Phe(4-CONH2)]Y(Carboxymethyl)D[Phe(3-Me)]Y(Carboxymethyl)[Bip]Y(Carboxymethyl)[Orn][dL][Dab][Cha][Val(3-OH)]SC[Dab][Aun]-OH; thioether N-14): the IC50 turned out to be 7.1 nM.

In the case of `Cc1cccc(C[C@@H]2NC(=O)[C@H](CC(=O)O)NC(=O)[C@H](Cc3ccc(OCC(=O)O)cc3)NC(=O)[C@H](Cc3cnc[nH]3)NC(=O)CSC[C@@H](C(=O)N[C@@H](CCN)C(=O)NCCCCCCCCCCC(=O)O)NC(=O)[C@H](CO)NC(=O)[C@H](C(C)(C)O)NC(=O)[C@H](CC3CCCCC3)NC(=O)[C@H](CCN)NC(=O)[C@@H](CC(C)C)NC(=O)[C@H](CCCN)NC(=O)[C@H](Cc3ccc(OCC(=O)O)cc3)NC(=O)[C@H](Cc3ccc(-c4ccccc4)cc3)NC(=O)[C@H](Cc3ccc(OCC(=O)O)cc3)NC2=O)c1` [Compound 2219] ({CH2CO}-HY(Carboxymethyl)D[Phe(3-Me)]Y(Carboxymethyl)[Bip]Y(Carboxymethyl)[Orn][dL][Dab][Cha][Val(3-OH)]SC[Dab][Aun]-OH; thioether N-14), the concentration for half-maximal inhibition (IC50) amounted to 4.7 nM.

As for `Cc1cccc(C[C@@H]2NC(=O)[C@H](CC(=O)O)NC(=O)[C@H](Cc3ccc(OCC(=O)O)cc3)NC(=O)[C@H](CC(N)=O)NC(=O)CSC[C@@H](C(=O)N[C@@H](CCN)C(=O)NCCCCCCCCCCC(=O)O)NC(=O)[C@H](CO)NC(=O)[C@H](C(C)(C)O)NC(=O)[C@H](CC3CCCCC3)NC(=O)[C@H](CCN)NC(=O)[C@@H](CC(C)C)NC(=O)[C@H](CCCN)NC(=O)[C@H](Cc3ccc(OCC(=O)O)cc3)NC(=O)[C@H](Cc3ccc(-c4ccccc4)cc3)NC(=O)[C@H](Cc3ccc(OCC(=O)O)cc3)NC2=O)c1` [Compound 2220] ({CH2CO}-NY(Carboxymethyl)D[Phe(3-Me)]Y(Carboxymethyl)[Bip]Y(Carboxymethyl)[Orn][dL][Dab][Cha][Val(3-OH)]SC[Dab][Aun]-OH; thioether N-14), the IC50 is 12.3 nM.

As for `Cc1cccc(C[C@@H]2NC(=O)[C@H](CC(=O)O)NC(=O)[C@H](Cc3ccc(OCC(=O)O)cc3)NC(=O)[C@H](CN)NC(=O)CSC[C@@H](C(=O)N[C@@H](CCN)C(=O)NCCCCCCCCCCCCC(=O)O)NC(=O)[C@H](CO)NC(=O)[C@H](C(C)(C)O)NC(=O)[C@H](CC3CCCCC3)NC(=O)[C@H](CCN)NC(=O)[C@@H](CC(C)C)NC(=O)[C@H](CCCN)NC(=O)[C@H](Cc3ccc(OCC(=O)O)cc3)NC(=O)[C@H](Cc3ccc(-c4ccccc4)cc3)NC(=O)[C@H](Cc3ccc(OCC(=O)O)cc3)NC2=O)c1` [Compound 2222] ({CH2CO}-[Dap]Y(Carboxymethyl)D[Phe(3-Me)]Y(Carboxymethyl)[Bip]Y(Carboxymethyl)[Orn][dL][Dab][Cha][Val(3-OH)]SC[Dab]-{NH(CH2)12COOH}; thioether N-14), the IC50 came out at 17.6 nM.

For `Cc1cccc(C[C@@H]2NC(=O)[C@H](CC(=O)O)NC(=O)[C@H](Cc3ccc(OCC(=O)O)cc3)NC(=O)[C@H](CN)NC(=O)CSC[C@@H](C(=O)N[C@@H](CCN)C(=O)NCCCCCCCCCCCCCCC(=O)O)NC(=O)[C@H](CO)NC(=O)[C@H](C(C)(C)O)NC(=O)[C@H](CC3CCCCC3)NC(=O)[C@H](CCN)NC(=O)[C@@H](CC(C)C)NC(=O)[C@H](CCCN)NC(=O)[C@H](Cc3ccc(OCC(=O)O)cc3)NC(=O)[C@H](Cc3ccc(-c4ccccc4)cc3)NC(=O)[C@H](Cc3ccc(OCC(=O)O)cc3)NC2=O)c1` [Compound 2223] ({CH2CO}-[Dap]Y(Carboxymethyl)D[Phe(3-Me)]Y(Carboxymethyl)[Bip]Y(Carboxymethyl)[Orn][dL][Dab][Cha][Val(3-OH)]SC[Dab]-{NH(CH2)14COOH}; thioether N-14), the half-inhibitory concentration (IC50) was 280 nM.

In the case of `Cc1cccc(C[C@@H]2NC(=O)[C@H](CC(=O)O)NC(=O)[C@H](Cc3ccc(OCC(=O)O)cc3)NC(=O)[C@H](Cc3ccncc3)NC(=O)CSC[C@@H](C(=O)N[C@@H](CCN)C(=O)NCCCCCCCCCCCCC(=O)O)NC(=O)[C@H](CO)NC(=O)[C@H](C(C)(C)O)NC(=O)[C@H](CC3CCCCC3)NC(=O)[C@H](CCN)NC(=O)[C@@H](CC(C)C)NC(=O)[C@H](CCCN)NC(=O)[C@H](Cc3ccc(OCC(=O)O)cc3)NC(=O)[C@H](Cc3ccc(-c4ccccc4)cc3)NC(=O)[C@H](Cc3ccc(OCC(=O)O)cc3)NC2=O)c1` [Compound 2224] ({CH2CO}-[4Pal]Y(Carboxymethyl)D[Phe(3-Me)]Y(Carboxymethyl)[Bip]Y(Carboxymethyl)[Orn][dL][Dab][Cha][Val(3-OH)]SC[Dab]-{NH(CH2)12COOH}; thioether N-14), the half-inhibitory concentration (IC50) amounted to 26.2 nM.

For `CCC[C@@H]1NC(=O)CSC[C@@H](C(=O)N[C@@H](CCN)C(=O)NCCCCCCCCCCCCC(=O)O)NC(=O)[C@H](CO)NC(=O)[C@H](C(C)(C)O)NC(=O)[C@H](CC2CCCCC2)NC(=O)[C@H](CCN)NC(=O)[C@@H](CC(C)C)NC(=O)[C@H](CCCN)NC(=O)[C@H](Cc2ccc(OCC(=O)O)cc2)NC(=O)[C@H](Cc2ccc(-c3ccccc3)cc2)NC(=O)[C@H](Cc2ccc(OCC(=O)O)cc2)NC(=O)[C@H](Cc2cccc(C)c2)NC(=O)[C@H](CC(=O)O)NC(=O)[C@H](Cc2ccc(OCC(=O)O)cc2)NC1=O` [Compound 2226] ({CH2CO}-[Nva]Y(Carboxymethyl)D[Phe(3-Me)]Y(Carboxymethyl)[Bip]Y(Carboxymethyl)[Orn][dL][Dab][Cha][Val(3-OH)]SC[Dab]-{NH(CH2)12COOH}; thioether N-14), the half-maximal inhibitory concentration (IC50) stood at 27.8 nM.

Take `Cc1cccc(C[C@@H]2NC(=O)[C@H](CC(=O)O)NC(=O)[C@H](Cc3ccc(OCC(=O)O)cc3)NC(=O)[C@H](Cc3ccncc3)NC(=O)CSC[C@@H](C(=O)N[C@@H](CCN)C(=O)NCCCCCCCCCCCCCCC(=O)O)NC(=O)[C@H](CO)NC(=O)[C@H](C(C)(C)O)NC(=O)[C@H](CC3CCCCC3)NC(=O)[C@H](CCN)NC(=O)[C@@H](CC(C)C)NC(=O)[C@H](CCCN)NC(=O)[C@H](Cc3ccc(OCC(=O)O)cc3)NC(=O)[C@H](Cc3ccc(-c4ccccc4)cc3)NC(=O)[C@H](Cc3ccc(OCC(=O)O)cc3)NC2=O)c1` [Compound 2227] ({CH2CO}-[4Pal]Y(Carboxymethyl)D[Phe(3-Me)]Y(Carboxymethyl)[Bip]Y(Carboxymethyl)[Orn][dL][Dab][Cha][Val(3-OH)]SC[Dab]-{NH(CH2)14COOH}; thioether N-14): the half-inhibitory concentration (IC50) stood at 204 nM.

`Cc1cccc(C[C@@H]2NC(=O)[C@H](CC(=O)O)NC(=O)[C@H](Cc3ccc(OCC(=O)O)cc3)NC(=O)[C@H](CCCNC(=N)N)NC(=O)CSC[C@@H](C(=O)N[C@@H](CCN)C(=O)NCCCCCCCCCCCCCCC(=O)O)NC(=O)[C@H](CO)NC(=O)[C@H](C(C)(C)O)NC(=O)[C@H](CC3CCCCC3)NC(=O)[C@H](CCN)NC(=O)[C@@H](CC(C)C)NC(=O)[C@H](CCCN)NC(=O)[C@H](Cc3ccc(OCC(=O)O)cc3)NC(=O)[C@H](Cc3ccc(-c4ccccc4)cc3)NC(=O)[C@H](Cc3ccc(OCC(=O)O)cc3)NC2=O)c1` [Compound 2228] ({CH2CO}-RY(Carboxymethyl)D[Phe(3-Me)]Y(Carboxymethyl)[Bip]Y(Carboxymethyl)[Orn][dL][Dab][Cha][Val(3-OH)]SC[Dab]-{NH(CH2)14COOH}; thioether N-14): the IC50 came out at 78.1 nM.

On to `COc1ccc(C[C@@H]2NC(=O)[C@H](Cc3cccc(C)c3)NC(=O)[C@H](CC(=O)O)NC(=O)[C@H](Cc3ccc(OCC(=O)O)cc3)NC(=O)[C@H](Cc3ccncc3)NC(=O)CSC[C@@H](C(=O)N[C@@H](CCN)C(=O)NCCCCCCCCCCC(=O)O)NC(=O)[C@H](CO)NC(=O)[C@H](C(C)(C)O)NC(=O)[C@H](CC3CCCCC3)NC(=O)[C@H](CCN)NC(=O)[C@@H](CC(C)C)NC(=O)[C@H](CCCN)NC(=O)[C@H](Cc3ccc(OCC(=O)O)cc3)NC(=O)[C@H](Cc3ccc(-c4ccccc4)cc3)NC2=O)cc1` [Compound 2229] ({CH2CO}-[4Pal]Y(Carboxymethyl)D[Phe(3-Me)]Y(Me)[Bip]Y(Carboxymethyl)[Orn][dL][Dab][Cha][Val(3-OH)]SC[Dab][Aun]-OH; thioether N-14), for which the IC50 came out at 0.6 nM.

For the compound `Cc1cccc(C[C@@H]2NC(=O)[C@H](CC(=O)O)NC(=O)[C@H](Cc3ccc(OCC(=O)O)cc3)NC(=O)[C@H](CCO)NC(=O)CSC[C@@H](C(=O)N[C@@H](CCN)C(=O)NCCCCCCCCCCC(=O)O)NC(=O)[C@H](CO)NC(=O)[C@H](C(C)(C)O)NC(=O)[C@H](CC3CCCCC3)NC(=O)[C@H](CCN)NC(=O)[C@@H](CC(C)C)NC(=O)[C@H](CCCN)NC(=O)[C@H](Cc3ccc(OCC(=O)O)cc3)NC(=O)[C@H](Cc3ccc(-c4ccccc4)cc3)NC(=O)[C@H](Cc3ccc(OCC(=O)O)cc3)NC2=O)c1` [Compound 2230] ({CH2CO}-[hSer]Y(Carboxymethyl)D[Phe(3-Me)]Y(Carboxymethyl)[Bip]Y(Carboxymethyl)[Orn][dL][Dab][Cha][Val(3-OH)]SC[Dab][Aun]-OH; thioether N-14), the concentration for half-maximal inhibition (IC50) was 2.2 nM.

Take `Cc1cccc(C[C@@H]2NC(=O)[C@H](CC(=O)O)NC(=O)[C@H](Cc3ccc(OCC(=O)O)cc3)NC(=O)[C@H](CCc3ccccc3)NC(=O)CSC[C@@H](C(=O)N[C@@H](CCN)C(=O)NCCCCCCCCCCC(=O)O)NC(=O)[C@H](CO)NC(=O)[C@H](C(C)(C)O)NC(=O)[C@H](CC3CCCCC3)NC(=O)[C@H](CCN)NC(=O)[C@@H](CC(C)C)NC(=O)[C@H](CCCN)NC(=O)[C@H](Cc3ccc(OCC(=O)O)cc3)NC(=O)[C@H](Cc3ccc(-c4ccccc4)cc3)NC(=O)[C@H](Cc3ccc(OCC(=O)O)cc3)NC2=O)c1` [Compound 2231] ({CH2CO}-[hPhe]Y(Carboxymethyl)D[Phe(3-Me)]Y(Carboxymethyl)[Bip]Y(Carboxymethyl)[Orn][dL][Dab][Cha][Val(3-OH)]SC[Dab][Aun]-OH; thioether N-14): the IC50 came to 15.2 nM.
